Values joined by “and” are separate entries in the source; they are usually repeats but may differ in a detail not shown here. Equal values may be shown once.
Test system: 266295-075-R-J1-PDC spheroid viability
Assay: Anticancer human tumor 266295-075-R-J1-PDC patient-derived head and neck squamous carcinoma cell line growth inhibition [POLQ]
Settings: spheroids with HUVEC and MSC; for viability, T/C: stronger effect = lower value
Description: Multicellular complex tumor spheroid response to Polymerase (POL) inhibitors (novobiocin, ART-558, RP6685) in combination with a variety of drugs and investigational agents in selected tumor cell lines
The POL inhibitors (novobiocin, ART-558, and RP6685) were evaluated both individually and in combination with standard of care and investigational anticancer small molecules within a complex spheroid model of solid tumors. . Complex spheroids include a stromal component modeled by human endothelial cells (HUVEC) and fibroblasts modeled by human mesenchymal stem cells (MSCs). The concentration ranges selected for each drug and investigational agent were based upon clinically achievable concentrations if the clinical Cmax of the agent was known.
Compounds. The drugs and investigational agents: novobiocin (NSC847541), ART-558 (NSC835418), RP-6685 (NSC848927), peposertib (NSC802822), ceralasertib (NSC780249), elimusertib (NSC800525), camonsertib (NSC841442), AZD-1390 (NSC803789), olaparib (NSC753686), talazoparib (NSC767125), rucaparib (NSC756644), sotorasib (NSC818433), MRTX-1133 (NSC836407), SN-38 (NSC673596), topotecan (NSC609699), epotoside (NSC141540), doxorubicin (NSC123127), gemcitabine (NSC613327), 5-fluorouracil (NSC19893), paclitaxel (NSC125973), vemurafenib (NSC761431), MSA-2 (NSC828583), SN-011 (NSC837082), adavosertib (NSC754352), prexasertib (NSC758257), carboplatin (NSC241240) and oxaliplatin (NSC266046), were obtained from the National Cancer Institute (NCI) Developmental Therapeutics Program Chemical Repository (21). The FDA-approved anticancer drug set is available from the Developmental Therapeutics Program at https://dtp.cancer.gov/organization/dscb/obtaining/. […] The stock solutions were prepared in dimethyl sulfoxide (DMSO, Sigma-Aldrich, St. Louis, MO, cat. D2650), except for the platinum compounds which were prepared in saline (Quality Biological, Gaithersburg, MD, cat. 114-055-101), at 800-fold the tested concentration and stored at -70 degrees C prior to their use. All drugs and investigational agents were tested over a range starting from a high concentration at or near the clinical Cmax and decreasing in half-log increments. If the clinical Cmax for an agent had not been determined, the highest concentration tested was 10 microM, except for SN-38, which was tested at a high concentration of 1 microM.
Cell Culture. All cells were maintained in an incubator at 37 degrees C and 5% CO2 with 95% humidity. The PDC lines were cultured according to standard operating procedures established by the NCI PDMR (https://pdmr.cancer.gov). Table 3 of the manuscript, lists the cell lines along with the number of the three cell types plated to form the mct-spheroids and media for tumor cell growth. After thawing, all PDC lines, except 997537-175-T-J1-PDC and 415267-285-R-J2-PDC, were cultured in Matrigel-coated flasks prepared with a working solution of 1X Ham's F-12 nutrient mix, without supplementation (Thermo Fisher Scientific, cat. 11765054), 100 U/mL penicillin-streptomycin (Thermo Fisher Scientific, cat. 15140122), and 2.5% Matrigel (Corning Inc., Corning, NY, cat. 354248) for the first three passages. The two PDC lines 997537-175-T-J1-PDC and 415267-285-R-J2-PDC were cultured on uncoated flasks. The 857933-349-R-J2-PDC line was cultured in 6C/Colon 1B media containing advanced DMEM/F-12 (Thermo Fisher Scientific, cat. 12634028), 10 mM HEPES (Thermo Fisher Scientific, cat. 15630080), 1X GlutaMAX supplement (Thermo Fisher Scientific, cat. 35050061), 0.1 mg/mL primocin (InvivoGen, San Diego, CA, cat. ant-pm-2), 10% defined fetal bovine serum, heat inactivated (HyClone Laboratories Inc., Logan, UT, cat. SH30070.03HI), 50% L-WRN conditioned media (ATCC, cat. CRL-3276), 1.25 mM N-Acetyl-L-cysteine (Sigma-Aldrich, cat. A9165), 10 mM nicotinamide (Sigma-Aldrich, cat. N0636), 1X B-27 supplement (Thermo Fisher Scientific, cat. 17504044), 1X N-2 supplement (Thermo Fisher Scientific, cat. […]
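Further: spheroids exposed to compounds for seven days before readout.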

Which results are given for COc1cc(C2c3cc4c(cc3C(OC3OC5COC(C)OC5C(O)C3O)C3COC(=O)C23)OCO4)cc(OC)c1O (stereo not drawn) + Nc1ccc(C#CCN(C(=O)Cc2ncc(C(F)(F)F)cc2C(F)(F)F)c2ccc(F)cc2)nn1?
IC50 (curve of first compound, second compound 0.0316 µM): > 10 µM; IC50 (curve of first compound, second compound 0.1 µM): > 10 µM; IC50 (curve of first compound, second compound 0.316 µM): > 10 µM; IC50 (curve of first compound, second compound 1 µM): > 10 µM; IC50 (curve of first compound, second compound 3.16 µM): > 10 µM; IC50 (curve of first compound, second compound 10 µM): > 10 µM; viability, T/C (second compound 0.0316 µM, first compound 0.0316 µM): 81.1%; viability, T/C (second compound 0.0316 µM, first compound 0.1 µM): 103%; viability, T/C (second compound 0.0316 µM, first compound 0.316 µM): 77.6%; viability, T/C (second compound 0.0316 µM, first compound 1 µM): 94.4%; viability, T/C (second compound 0.0316 µM, first compound 3.16 µM): 98.9%; viability, T/C (second compound 0.0316 µM, first compound 10 µM): 82.8%; viability, T/C (second compound 0.1 µM, first compound 0.0316 µM): 84.1%; viability, T/C (second compound 0.1 µM, first compound 0.1 µM): 97%; viability, T/C (second compound 0.1 µM, first compound 0.316 µM): 103%; viability, T/C (second compound 0.1 µM, first compound 1 µM): 97.4%; viability, T/C (second compound 0.1 µM, first compound 3.16 µM): 111%; viability, T/C (second compound 0.1 µM, first compound 10 µM): 80.1%; viability, T/C (second compound 0.316 µM, first compound 0.0316 µM): 97%; viability, T/C (second compound 0.316 µM, first compound 0.1 µM): 127%; viability, T/C (second compound 0.316 µM, first compound 0.316 µM): 82.2%; viability, T/C (second compound 0.316 µM, first compound 1 µM): 90.7%; viability, T/C (second compound 0.316 µM, first compound 3.16 µM): 94.9%; viability, T/C (second compound 0.316 µM, first compound 10 µM): 90.6%; viability, T/C (second compound 1 µM, first compound 0.0316 µM): 104%; viability, T/C (second compound 1 µM, first compound 0.1 µM): 94.1%; viability, T/C (second compound 1 µM, first compound 0.316 µM): 92.3%; viability, T/C (second compound 1 µM, first compound 1 µM): 96.4%; viability, T/C (second compound 1 µM, first compound 3.16 µM): 92.3%; viability, T/C (second compound 1 µM, first compound 10 µM): 88.8%; viability, T/C (second compound 3.16 µM, first compound 0.0316 µM): 75.9%; viability, T/C (second compound 3.16 µM, first compound 0.1 µM): 118%; viability, T/C (second compound 3.16 µM, first compound 0.316 µM): 84.8%; viability, T/C (second compound 3.16 µM, first compound 1 µM): 93.2%; viability, T/C (second compound 3.16 µM, first compound 3.16 µM): 107%; viability, T/C (second compound 3.16 µM, first compound 10 µM): 90.5%; viability, T/C (second compound 10 µM, first compound 0.0316 µM): 90.8%; viability, T/C (second compound 10 µM, first compound 0.1 µM): 92.9%; viability, T/C (second compound 10 µM, first compound 0.316 µM): 95.2%; viability, T/C (second compound 10 µM, first compound 1 µM): 81.2%; viability, T/C (second compound 10 µM, first compound 3.16 µM): 95.8%; viability, T/C (second compound 10 µM, first compound 10 µM): 77.1%

What does the source list for CC1COCCN1c1cc(-c2ccnn2C)c2ccnc(-c3ccn[nH]3)c2n1 (stereo not drawn)?
viability, T/C (compound 0.0316 µM): 91% and 92.4% and 98.3%; viability, T/C (compound 0.1 µM): 70.7% and 81.1% and 80.7%; viability, T/C (compound 0.316 µM): 62.5% and 67.2% and 69.4%; viability, T/C (compound 1 µM): 45.2% and 52.3% and 59.2%; viability, T/C (compound 3.16 µM): 47.1% and 49% and 53.5%; viability, T/C (compound 10 µM): 36.6% and 36.9% and 32%; IC50 (curve of compound): 0.965 µM and 1.85 µM and 2.43 µM

What does the source list for C#Cc1c(F)ccc2cc(O)cc(-c3ncc4c(N5CC6CCC(C5)N6)nc(OCC56CCCN5CC(F)C6)nc4c3F)c12 (stereo not drawn)?
viability, T/C (compound 0.0316 µM): 88.8% and 94.8% and 100%; viability, T/C (compound 0.1 µM): 93.5% and 94.2% and 79.7%; viability, T/C (compound 0.316 µM): 81.2% and 69.6% and 68.8%; viability, T/C (compound 1 µM): 76.1% and 83.5% and 63.2%; viability, T/C (compound 3.16 µM): 66% and 76.4% and 54.8%; viability, T/C (compound 10 µM): 61.1% and 56.7% and 58%; IC50 (curve of compound): > 10 µM

For CC(C)n1c(=O)n(C)c2cnc3cc(F)c(-c4ccc(OCCCN5CCCCC5)nc4)cc3c21, which viability, T/C (compound 0.0316 µM) is on record?
The viability, T/C was 127% and 94.5% and 93.5%.

What about the viability, T/C (compound 0.1 µM) of the same molecule?
Its viability, T/C is 74.1% and 94.9% and 97.8%.

And the viability, T/C (compound 0.316 µM)?
Its viability, T/C is 107% and 111% and 96.5%.

And the viability, T/C (compound 1 µM)?
The viability, T/C was 100% and 92.8% and 103%.

What about the viability, T/C (compound 3.16 µM) of the same molecule?
Its viability, T/C is 89.6% and 91.6% and 94.1%.

What about the viability, T/C (compound 10 µM) of the same molecule?
Its viability, T/C is 70.6% and 64.5% and 76.9%.

What about the IC50 (curve of compound) of the same molecule?
Its IC50 is over 10 µM.

Source: PubChem BioAssay AID1963853 (Molecular Pharmacology Branch, DTP, NCI, 2024)
